pIC50: −log10 of the molar value.
How the values were obtained:
[1] = system: BaF3 TELJAK cells (BafT_J2); assay: Cellular screening, BaF3 TELJAK2 cells (Alamar Blue); assay type: cell-based; conditions: Mus musculus, BaF3; 48-72 hr incubation; read-out: BafT_J2_IC50_μM
Protocol: (§1) For screening purposes, compounds were diluted in 96 well plates at a concentration of 20 μM. Plates were warmed at 37° C. for 30 minutes before the assay was performed.
A TEL/Jak2 fusion was generated by digestion of the TELPCR product with BamH I/Sal I restriction enzymes, digestion of the JAK2 PCR product with Sal I/Not I restriction enzymes, followed by ligation and subcloning of the ligation product into the mammalian expression Vector pTRE 2 (Clontech), which was prepared by digestion with BamH I—Not I restriction enzymes, to give the TEL/Jak2 fusion plasmid pTELJAK2.
(§2) The growth factor dependent myelomonocytic cell line BaF3 bearing the pTET-off plasmid (Clontech) was transfected with either pTELJAK2 or pTELJAK3, and the transfected cells were selected for growth-factor independent cell growth. The BaF3 wild-type cells were cultured in DMEM containing 10% FCS, 10% WEHI 3B conditioned medium. The BaF3 TELJAK cells ([…]) were cultured in DMEM 10% Tet-System Approved FBS (without WEHI 3B conditioned medium).
(§3) Cell suspensions were prepared by harvesting cells from culture (the cells used in this test were in late log phase growth with high viability.) Cells were diluted in the appropriate growth medium, as described above, to 1.1× final concentration (from 50,000 cell/mL to 200,000 cell/mL, depending on cell line).
(§4) Compounds to be tested were added (10 μL, 10× final concentration) to a flat bottomed 96-well plate. The cellular suspension (90 μL per well) was then added, and the plate incubated for 48-72 hr at 37° C., 5% CO2. Alamar Blue 10 μL per well was added and the plates returned to the incubator for a further 4-6 hours.
(§5) Result are given in table 2 where +++ is <1 μM, ++ is <5 μM and + is <20 μM

BaF3 wild-type cells = assay: Cellular screening, BaF3 wild-type cells (Alamar Blue); assay type: cell-based; conditions: Mus musculus, 48-72 hr incubation, read-out: BAF3wt_IC50_μM
Protocol: as §1, §2, §3
as §4, with “hours. The plates were then read at 544 nm.” for “hours.”
as §5

[2] = system: STAT5 phosphorylation in HEL 92.1.7 cells; assay: Intracellular flow cytometric (FACS) analysis of STAT5 phosphorylation in HEL cells; assay type: cell-based, human; conditions: HEL 92.1.7 cells, 0.25, 0.5, 1, or 2 μM, 2 hours
Protocol: After treatment the cells were stained with mouse monoclonal anti-STAT5 (Y694) PE antibody and analyzed using fluorescence activated cell sorting (FACS). The histograms are shaded according to the fold change in median fluorescence relative to the isotype control (Isocont lane in clear outline).
The human erythroleukemic cell line, HEL 92.1.7 (ATCC, TIB-180), was grown in RPMI 1640 containing 10% PCS supplemented with 1 mM sodium pyruvate. For phosphor-STAT 5 determination, HEL cells were grown in RPMI 1640+1% PCS for 18 hours at 37° C. and 2×10^5 cells per assay point were exposed to DMSO/test compounds for 2 hours at 37° C. The cells were centrifuged at 1300 rpm for 3 minutes and fixed in paraformaldehyde (2% final concentration) for 15 minutes at 37° C. After centrifugation, cells were permeabilized in 90% methanol at 4° C. for 30 minutes. […]
Staining proceeded for 1 hour at room temperature in the dark, followed by 3 washes in PBS-2% FCS. […] The median fluorescence intensity (MFI) was used to determine fold change upon treatment of cells with specific inhibitor compounds, calculated as the MFIstimulated/MFIunstimulated ratio for the phosphospecific antibody fluorescence channel (FL2).

[3] = system: growth hormone-stimulated insulin-like growth factor-1 (IGF-1); assay: Growth hormone-stimulated IGF-1 concentrations in mouse plasma; assay type: in vivo; conditions: female C3/H mice, 50 mg/kg oral gavage 8 h and 30 min prior to GH, 6 h post-GH
Protocol: Blood samples were collected 6 h post-GH administration, and plasma IGF-1 concentrations measured using an ELISA for mouse IGF-1 (R & D Systems). Different superscripts denote significant differences (p<0.05) between groups detected by one-way ANOVA and Bonferroni's test post-hoc.

Ba/F3 TelJAK2 cells = assay: Subcutaneous tumour model of Ba/F3 TelJAK2 cells in nude mice; assay type: in vivo, mouse; conditions: for tumour volumes compared to Vehicle Control Treated Group: after 14 days of dosing; for mean percentage T/C: dosing day 14
Protocol: Dosing commenced 11 days post-tumour cell inoculation, when tumours were palpable (mean tumour volume of 6 mm^3). Tumour dimensions were measured twice weekly.

N#CCNC(=O)c1ccc(-c2ccnc(Nc3ccc(N4CCOCC4)cc3)n2)cc1 [Compound 3, N-(cyanomethyl)-4-(2-(4-morpholinophenyl-amino)pyrimidin-4-yl)benzamide]
pIC50 [1]: > 6.00 | pIC50 (BaF3 wild-type cells): > 5.30 | effect on STAT5 phosphorylation (FACS) [2]: dose-dependent effect | plasma IGF-1 concentration [3]: marked decrease | tumour volumes compared to Vehicle Control Treated Group (Ba/F3 TelJAK2 cells; 5 mg/kg): not different | mean percentage T/C (Ba/F3 TelJAK2 cells; 5 mg/kg/day oral gavage): 82% | mean percentage T/C (Ba/F3 TelJAK2 cells; 10 mg/kg b.i.d. oral gavage): 25% | tumour volumes compared to Vehicle Control Treated Group (Ba/F3 TelJAK2 cells; 10 mg/kg b.i.d., t-test p<0.05): smaller tumour volumes | mean percentage T/C (Ba/F3 TelJAK2 cells; 20 mg/kg b.i.d. oral gavage): 39% | tumour volumes compared to Vehicle Control Treated Group (Ba/F3 TelJAK2 cells; 20 mg/kg b.i.d., t-test p<0.05): smaller tumour volumes
